The text below walks through data of patent publication US20170049842A1, “FOOD ADDITIVE FOR PRODUCING FOOD FOR PREVENTING CRANIAL NERVE DISEASE AND/OR IMPROVING BRAIN FUNCTION” (FUJI OIL HOLDINGS INC., priority 2014, published 2017).

Like-named read-outs stand apart in the source and are kept apart here. Peptide text beside a SMILES is read from it.

Data set [1] in a line: Permeability coefficient (Papp) across Caco-2 cell monolayers in Ussing Chamber. The note with it: Caco-2; for Papp A→B at 60 min, 10 mM: human.
Protocol: (§1) The measurement of permeability coefficient, which was an index of absorbability in the intestinal tract, of ARPs was performed as follows.
(§2) Caco-2 cells were seeded in Cell culture insert at 4.0×10^5 cells/mL, and cultured for 3 days in an intestinal epithelial differentiation promoting medium. Caco-2 cell monolayers were cut and set to Ussing Chamber. Hanks' Balanced Salt Solution (HBSS) (apical membrane side: pH 6.0, basolateral membrane side: pH 7.4) was added in each Chamber. After 15 minutes preliminary heat retention (37° C., 95% O2/5% CO2 mixture gas), each ARPs aqueous solution (10 mM) was added to apical membrane side. Samples were recovered from the basolateral membrane side every 15 minutes (total 60 minutes). The recovered sample was subjected to ESI-TOF-MS (Electro Spray Ionization-Time of Flight-Mass Spectrometry) analysis to determine permeated peptide amount. Permeability coefficient (Papp) was calculated according to the following formula.
(§3) C0: concentration of added peptide (mmol/L)
(§4) dC/dt: Permeated amount of peptide per time (mmol/L·sec)
(§5) Concentration of peptide, which transitioned to the basolateral membrane side in each time, was calculated based on the area from reference standard. In addition, it was confirmed that they were not degraded to amino acids.
(§6) Permeated peptide amount per time was calculated and permeability coefficient (Papp) was calculated according to the above formula.
In data set [2] the test system is Caco-2 cell monolayers. The data set is described as above. The note with it: compared with the other ARPs.
Protocol: as §1, §2, §3, §4, §5, §6
Data set [3] concerns Caco-2 cell monolayers.
Protocol: as §1, §2, §3, §4, §5, §6
A further data set in a line: in vitro. The conditions noted are these: human, Caco-2.

Protocol for in vitro: as §1, §2, §3, §4, §5, §6

A word on the Papp A→B: it is the apparent permeability from the apical to the basolateral side of a cell layer. With `NC(=O)C[C@H](NC(=O)[C@@H](N)Cc1ccc(O)cc1)C(=O)O` [F, Tyr-Asn] (H-Tyr-Asn-OH; N-terminus and C-terminus assumed), the Papp A→B in data set [1] was determined as 0.044 ± 0.009 ×10⁻⁶ cm/s. `N[C@@H](Cc1ccc(O)cc1)C(=O)N1CCC[C@H]1C(=O)O` [E, Tyr-Pro] (H-Tyr-Pro-OH; N-terminus and C-terminus assumed): in data set [1], the Papp A→B came to 0.885 ± 0.215 ×10⁻⁶ cm/s. In the data set on Caco-2 cell monolayers [2], the “permeability coefficient / permeation efficiency in mesenteric model cell, in words” value was “relatively high permeation efficiency”. In the case of `N[C@@H](Cc1ccc(O)cc1)C(=O)N[C@@H](CO)C(=O)O` [D, Tyr-Ser] (H-Tyr-Ser-OH; N-terminus and C-terminus assumed), the Papp A→B in data set [1] came out at 0.248 ± 0.088 ×10⁻⁶ cm/s. Moreover, the “permeability coefficient / permeation efficiency in mesenteric model cell, in words” value in the data set on Caco-2 cell monolayers [2] was “relatively higher permeability coefficient than the other ARPs”.

Consider `N[C@@H](Cc1ccccc1)C(=O)N[C@@H](Cc1ccc(O)cc1)C(=O)O` [G, Phe-Tyr] (H-Phe-Tyr-OH; N-terminus and C-terminus assumed), for which the Papp A→B at 60 min, 10 mM in data set [1] was found to be 0.006 ± 0.0001 ×10⁻⁶ cm/s. For `N[C@@H](CO)C(=O)N[C@@H](Cc1ccc(O)cc1)C(=O)O` [A, Ser-Tyr] (H-Ser-Tyr-OH; N-terminus and C-terminus assumed), the Papp A→B in data set [1] was determined as 0.72 ± 0.272 ×10⁻⁶ cm/s. Moreover, the “permeability coefficient / permeation efficiency in mesenteric model cell, in words” value with Caco-2 cell monolayers [2] is recorded as “relatively high permeation efficiency”. Consider `CC(C)C[C@H](NC(=O)[C@@H](N)Cc1ccc(O)cc1)C(=O)O` [B, Tyr-Leu] (H-Tyr-Leu-OH; N-terminus and C-terminus assumed), for which, in the data set with Caco-2 cell monolayers [3], the “permeability coefficient / permeation efficiency in mesenteric model cell, in words” value is “relatively higher permeability coefficient than the other ARPs”. The same compound displayed a Papp A→B at 60 min, 10 mM in “in vitro” of 0.596 ± 0.198 ×10⁻⁶ cm/s. `CC[C@H](C)[C@H](N)C(=O)N[C@@H](Cc1ccc(O)cc1)C(=O)O` [H, Ile-Tyr] (H-Ile-Tyr-OH; N-terminus and C-terminus assumed) had a Papp A→B in data set [1] of 2.92 ± 0.265 ×10⁻⁶ cm/s. The “permeability coefficient / permeation efficiency in mesenteric model cell, in words” value with Caco-2 cell monolayers [2] is on record as “relatively high permeation efficiency”. `N=C(N)NCCC[C@H](NC(=O)[C@@H](N)Cc1ccc(O)cc1)C(=O)O` [Peptide C, Tyr-Arg]: in data set [1], the Papp A→B at 60 min, 10 mM was 0.05 ± 0.011 ×10⁻⁶ cm/s.
